ChEMBL document CHEMBL1158231, “Antiviral sulfated steroids from the ophiuroid Ophioplocus januarii” (J Nat Prod, 1996)

Legend:
Vero [1] = test: Cytotoxicity against african green monkey Vero cells at 5 ug/mL after 7 days by trypan blue exclusion method; assay type: cell-based; details: chlorocebus sabaeus, 168 h
Poliovirus 3 [2] = test: Antiviral activity against human poliovirus 3 Sabin infected african green monkey Vero cells assessed as reduction of virus plaque formation at 40 ug/mL; assay type: functional; parameters: scale not given: the % may be the effect or the level left
Human alphaherpesvirus 1 [3] = test: Antiviral activity against HSV1 F infected african green monkey Vero cells assessed as reduction of virus plaque formation at 10 ug/mL; assay type: functional; parameters: scale not given: the % may be the effect or the level left
[4] = test system: Respiratory syncytial virus; test: Antiviral activity against RSV Long infected human Hep2 cells assessed as inhibition of viral-induced cytopathic effect at 10 ug/mL; assay type: functional; details: HEp-2
Vero [5] = test: Cytotoxicity against african green monkey Vero cells at 10 ug/mL after 7 days by trypan blue exclusion method; assay type: cell-based; details: chlorocebus sabaeus, 168 h
Poliovirus 3 [6] = test: Antiviral activity against human poliovirus 3 Sabin infected african green monkey Vero cells assessed as reduction of virus plaque formation at 5 ug/mL; assay type: functional; parameters: scale not given: the % may be the effect or the level left
Junin virus [7] = test: Antiviral activity against Junin virus IV 4454 infected african green monkey Vero cells assessed as reduction of virus plaque formation at 20 ug/mL; assay type: functional, Mammarenavirus juninense; parameters: scale not given: the % may be the effect or the level left
[8] = test system: Respiratory syncytial virus; test: Antiviral activity against RSV Long infected human Hep2 cells assessed as inhibition of viral-induced cytopathic effect at 40 ug/mL; assay type: functional; details: HEp-2
[9] = test system: Respiratory syncytial virus; test: Antiviral activity against RSV Long infected human Hep2 cells assessed as inhibition of viral-induced cytopathic effect at 5 ug/mL; assay type: functional; details: HEp-2
[10] = Cytotoxicity against african green monkey Vero cells assessed as cell viability at 40 ug/mL after 7 days by trypan blue exclusion method; assay type: cell-based; details: chlorocebus sabaeus, read-out: Activity
Human alphaherpesvirus 1 [11] = test: Antiviral activity against HSV1 F infected african green monkey Vero cells assessed as reduction of virus plaque formation at 20 ug/mL; assay type: functional; parameters: scale not given: the % may be the effect or the level left
[12] = test system: Respiratory syncytial virus; test: Antiviral activity against RSV Long infected human Hep2 cells assessed as inhibition of viral-induced cytopathic effect at 20 ug/mL; assay type: functional; details: HEp-2
Human alphaherpesvirus 1 [13] = test: Antiviral activity against HSV1 F infected african green monkey Vero cells assessed as reduction of virus plaque formation at 5 ug/mL; assay type: functional; parameters: scale not given: the % may be the effect or the level left
Junin virus [14] = test: Antiviral activity against Junin virus IV 4454 infected african green monkey Vero cells assessed as reduction of virus plaque formation at 10 ug/mL; assay type: functional, Mammarenavirus juninense; parameters: scale not given: the % may be the effect or the level left
Human alphaherpesvirus 1 [15] = test: Antiviral activity against HSV1 F infected african green monkey Vero cells assessed as reduction of virus plaque formation at 40 ug/mL; assay type: functional; parameters: scale not given: the % may be the effect or the level left
Vero [16] = test: Cytotoxicity against african green monkey Vero cells at 20 ug/mL after 7 days by trypan blue exclusion method; assay type: cell-based; details: chlorocebus sabaeus, 168 h
Junin virus [17] = test: Antiviral activity against Junin virus IV 4454 infected african green monkey Vero cells assessed as reduction of virus plaque formation at 5 ug/mL; assay type: functional, Mammarenavirus juninense; parameters: scale not given: the % may be the effect or the level left
Poliovirus 3 [18] = test: Antiviral activity against human poliovirus 3 Sabin infected african green monkey Vero cells assessed as reduction of virus plaque formation at 20 ug/mL; assay type: functional; parameters: scale not given: the % may be the effect or the level left
Junin virus [19] = test: Antiviral activity against Junin virus IV 4454 infected african green monkey Vero cells assessed as reduction of virus plaque formation at 40 ug/mL; assay type: functional, Mammarenavirus juninense; parameters: scale not given: the % may be the effect or the level left
Poliovirus 3 [20] = test: Antiviral activity against human poliovirus 3 Sabin infected african green monkey Vero cells assessed as reduction of virus plaque formation at 10 ug/mL; assay type: functional; parameters: scale not given: the % may be the effect or the level left

Compound | Activity (Vero [1]) | Activity (Poliovirus 3 [2]) [%] | Activity (Human alphaherpesvirus 1 [3]) [%] | inhibition at 10 µg/mL [4] [%] | Activity (Vero [5]) | Activity (Poliovirus 3 [6]) [%] | Activity (Junin virus [7]) [%] | inhibition at 40 µg/mL [8] [%] | inhibition at 5 µg/mL [9] [%] | viability at 168 h, 40 ug/mL [10] [%] | Activity (Human alphaherpesvirus 1 [11]) [%] | inhibition at 20 µg/mL [12] [%] | Activity (Human alphaherpesvirus 1 [13]) [%] | Activity (Junin virus [14]) [%] | Activity (Human alphaherpesvirus 1 [15]) [%] | Activity (Vero [16]) | Activity (Junin virus [17]) [%] | Activity (Poliovirus 3 [18]) [%] | Activity (Junin virus [19]) [%] | Activity (Poliovirus 3 [20]) [%]
CC(C)/C=C/[C@@H](COS(=O)(=O)[O-])[C@H]1CC[C@H]2[C@@H]3CC[C@@H]4[C@H](O)[C@H](OS(=O)(=O)[O-])CC[C@]4(C)[C@H]3[C@@H](O)C[C@]12C.[Na+].[Na+] | Non-toxic | 65 | 0 | 0 | Non-toxic | 0 | 29 | 75 | 0 | 100 | 12 | 50 | 0 | 21 | 36 | Non-toxic | 10 | 37 | 37 | 8
CC(C)CCC[C@@H](COS(=O)(=O)[O-])[C@H]1CC[C@H]2[C@@H]3CC[C@@H]4[C@H](O)[C@H](OS(=O)(=O)[O-])CC[C@]4(C)[C@H]3[C@@H](O)C[C@]12C.[Na+].[Na+] | Non-toxic | 30 | 7 | 0 | Non-toxic | 0 | 28 | 25 | 0 | 100 | 8 | 25 | 2 | 26 | 35 | Non-toxic | 24 | 24 | 33 | 0
C=C(CC[C@@H](COS(=O)(=O)[O-])[C@H]1CC[C@H]2[C@@H]3CC[C@@H]4[C@H](O)[C@H](OS(=O)(=O)[O-])CC[C@]4(C)[C@H]3[C@@H](O)C[C@]12C)C(C)C.[Na+].[Na+] | Non-toxic | 31 | 11 | 25 | Non-toxic | 0 | 38 | 50 | 0 | 100 | 20 | 25 | 3 | 33 | 36 | Non-toxic | 19 | 16 | 54 | 0
CC(C)C/C=C/[C@@H](COS(=O)(=O)[O-])[C@H]1CC[C@H]2[C@@H]3CC[C@@H]4[C@H](O)[C@H](OS(=O)(=O)[O-])CC[C@]4(C)[C@H]3[C@@H](O)C[C@]12C.[Na+].[Na+] | Non-toxic | 68 | 0 | 25 | Non-toxic | 0 | 36 | 75 | 0 | 100 | 14 | 50 | 0 | 31 | 39 | Non-toxic | 15 | 35 | 47 | 0
